Results on 28 compounds are retold here after patent publication US8921383B2, “Thiazolopyrimidine compounds” (Hoffmann-La Roche Inc., priority 2011, dated 2014).

In this assay the target is T1, purified recombinant human SYK360-635 (Homo sapiens, UniProt P43405).
T1 construct: truncated construct of Spleen Tyrosine Kinase aa 360-635; GST; made in house
Briefly: SYK kinase assay: 33P γATP incorporation into biotinylated peptide substrate, IC50 determination. The note with it: SYK 0.5 nM, ATP 20 μM, DYE peptide 5 μM, 30° C. 15 min; read-out: IC50 h-syk-gst-sf9-c (inactive-dephosphorylated). The class given is biochemical. As for the experimental part:
Determination of IC50 of Spleen Tyrosine Kinase (SYK) Inhibition:
SYK kinase assay is a standard kinase assay adapted to a 96 well plate format. This assay is performed in 96-well format for IC50 determination with […] which represented 10 half log dilutions and a 40 μL reaction volume. The assay measures the incorporation of radiolabeled ^33P γATP into an N-terminally biotinylated peptide substrate, derived from naturally occurring phosphoacceptor consensus sequence (Biotin-11aa DY*E). Phosphorylated products were detected upon termination of reactions with EDTA and the addition of Streptavidin coated beads.
Assay plates: 96-well MultiScreen 0.65 um filter plates (Millipore Cat. No.: MADVNOB10)
BSA: Bovine Serum Albumin Fraction V, fatty acid free (Roche Diagnostics GmbH, Cat. No. 9100221) diluted to a final concentration of 0.1%
Assay Dilution Buffer (ADB): 50 mM HEPES, 0.1 mM EGTA, 0.1 mM Na Vanadate, 0.1 mM β-glycerophosphate, 10 mM MgCl2, 1 mM DTT, 0.1% BSA, pH 7.5
Bead wash buffer: 10 g/L PBS (Phosphate buffered saline) with 2M NaCl+1% phosphoric acid.
DMSO and the mixture was incubated for 10 min at RT.
The kinase reaction was initiated by the addition of 10 μL 4× substrate cocktail containing the DYE peptide substrate [0 or 5 μM], ATP [20 μM] and ^33PγATP [2 μCi/r×n]. After incubation at 30° C. for 15 min, the reaction was terminated by the transfer of 25 μL of the reaction sample to a 96 well 0.65 μm Millipore MADVNOB membrane/plate containing 200 μL 5 mM EDTA and 20% Streptavidine coated beads in PBS.
After the last wash membrane/plates were transferred to an adaptor plate, heat dried for 15 min at 60° C., and 50 μL scintillation cocktail was added to each well and 4 h later the amount of radioactivity was counted in a top counter.
Turning to `COc1ccc(Nc2nc(N3CCCC(C(=O)Nc4ccc5cn[nH]c5c4)C3)nc3scnc23)cc1OC` (stereo not shown) [Compound I-45, 1-(7-(3,4-Dimethoxyphenylamino)thiazolo[5,4-d]pyrimidin-5-yl)-N-(1H-indazol-6-yl)piperidine-3-carboxamide], the IC50 amounted to 922 nM. The result for `COc1ccc(Nc2nc(N3CCC(NC(=O)c4ccc(C(=O)O)c(OC)c4)C3)nc3scnc23)cc1OC` (stereo not shown) [Compound I-10, 4-(1-(7-(3,4-Dimethoxyphenylamino)thiazolo[5,4-d]pyrimidin-5-yl)pyrrolidin-3-ylcarbamoyl)-2-methoxybenzoic acid] reads 111 nM; that for `COc1ccc(Nc2nc(N3CCC(NC(=O)c4ccc5cn[nH]c5c4)C3)nc3scnc23)cc1OC` (stereo not shown) [Compound I-11, N-(1-(7-(3,4-Dimethoxyphenylamino)thiazolo[5,4-d]pyrimidin-5-yl)pyrrolidin-3-yl)-1H-indazole-6-carboxamide], 406 nM; that for `O=C(O)c1cccc(-c2nc(Nc3cccc(N4C[C@H]5CC[C@@H](C4)O5)c3)c3ncsc3n2)c1` [Compound I-34, 3-{7-[(1R,5S)-3-(8-Oxa-3-aza-bicyclo[3.2.1]oct-3-yl)-phenylamino]-thiazolo[5,4-d]pyrimidin-5-yl}-benzoic acid], 2470 nM. With `COc1ccc(Nc2nc(-c3cccc(CNc4ccc(C(=O)OC(C)(C)C)cc4)c3)nc3scnc23)cc1OC` [Compound I-29, tert-Butyl 4-(3-(7-(3,4-dimethoxyphenylamino)thiazolo[5,4-d]pyrimidin-5-yl)benzylamino)benzoate], the IC50 worked out at 1490 nM. In the case of `COc1ccc(Nc2nc(N3CCCC(C(=O)Nc4ccc(C(=O)O)c(OC)c4)C3)nc3scnc23)cc1OC` (stereo not shown) [Compound I-43, 4-({1-[7-(3,4-Dimethoxy-phenylamino)-thiazolo[5,4-d]pyrimidin-5-yl]-piperidine-3-carbonyl}-amino)-2-methoxy-benzoic acid], the IC50 was 164 nM. As to `COc1ccc(Nc2nc(N3CCCC(C(=O)Nc4ccc(-c5noc(=O)[nH]5)cc4)C3)nc3scnc23)cc1OC` (stereo not shown) [Compound I-44, 1-(7-(3,4-Dimethoxyphenylamino)thiazolo[5,4-d]pyrimidin-5-yl)-N-(4-(5-oxo-4,5-dihydro-1,2,4-oxadiazol-3-yl)phenyl)piperidine-3-carboxamide], the IC50 came to 136 nM. As for `COC(=O)c1cccc(-c2nc(Nc3cccc(C(F)(F)F)c3)c3ncsc3n2)c1` [Compound I-56, Methyl 3-(7-(3-(trifluoromethyl)phenylamino)thiazolo[5,4-d]pyrimidin-5-yl)benzoate], the IC50 amounted to 3180 nM. For `COc1ccc(-c2nc(Nc3cccc(N4CCC[C@@H]4C)c3)c3ncsc3n2)cn1` [Compound I-61, (S)-5-(6-Methoxypyridin-3-yl)-N-(3-(2-methylpyrrolidin-1-yl)phenyl)thiazolo[5,4-d]pyrimidin-7-amine], the IC50 worked out at 1040 nM. With `COc1ccc(Nc2nc(-c3cccc(C(N)=O)c3)nc3scnc23)cc1OC` [Compound I-68, 3-[7-(3,4-Dimethoxy-phenylamino)-thiazolo[5,4-d]pyrimidin-5-yl]-benzamide], the IC50 amounted to 233 nM. The result for `COc1ccc(Nc2nc(N3CCCC(C(=O)Nc4cnccn4)C3)nc3scnc23)cc1OC` (stereo not shown) [Compound I-49, 1-(7-(3,4-Dimethoxyphenylamino)thiazolo[5,4-d]pyrimidin-5-yl)-N-(pyrazin-2-yl)piperidine-3-carboxamide] reads 1520 nM; that for `COc1ccc(Nc2nc(-c3ccc(C(=O)NCCN(C)C)cc3)nc3scnc23)cc1OC` [Compound I-66, 4-(7-(3,4-Dimethoxyphenylamino)thiazolo[5,4-d]pyrimidin-5-yl)-N-(2-(dimethylamino)ethyl)benzamide], 278 nM; that for `CNC(=O)c1ccc(NC(=O)c2cccc(-c3nc(Nc4ccc(OC)c(OC)c4)c4ncsc4n3)c2)cc1` [Compound I-3, 3-(7-(3,4-Dimethoxyphenylamino)thiazolo[5,4-d]pyrimidin-5-yl)-N-(4-(methylcarbamoyl)phenyl)benzamide], 71 nM. The result for `COc1ccc(Nc2nc(-c3cccc(C(F)=Cc4ccc(C(=O)O)cc4)c3)nc3scnc23)cc1OC` (stereo in doubt) [Compound I-31, 4-((E)-2-{3-[7-(3,4-Dimethoxy-phenylamino)-thiazolo[5,4-d]pyrimidin-5-yl]-phenyl}-2-fluoro-vinyl)-benzoic acid] reads 592 nM; that for `COc1ccc(Nc2nc(N3CCCC(C(=O)Nc4ccc5c(c4)CNC5=O)C3)nc3scnc23)cc1OC` (stereo not shown) [Compound I-46, 1-(7-(3,4-Dimethoxyphenylamino)thiazolo[5,4-d]pyrimidin-5-yl)-N-(1-oxoisoindolin-5-yl)piperidine-3-carboxamide], 1030 nM; that for `COc1ccc(Nc2nc(-c3cccc(CCc4ccc(C(=O)O)cc4)c3)nc3scnc23)cc1OC` [Compound I-33, 4-(3-(7-(3,4-Dimethoxyphenylamino)thiazolo[5,4-d]pyrimidin-5-yl)phenethyl)benzoic acid], 350 nM. The result for `COc1ccc(Nc2nc(-c3cccc(C(=O)Nc4ccc5[nH]ncc5c4)c3)nc3scnc23)cc1OC` [Compound I-18, 3-[7-(3,4-Dimethoxy-phenylamino)-thiazolo[5,4-d]pyrimidin-5-yl]-N-(1H-indazol-5-yl)-benzamide] reads 980 nM; that for `COc1ccc(Nc2nc(N3CCCC(C(=O)NC4CNC(=O)C4)C3)nc3scnc23)cc1OC` (stereo not shown) [Compound I-48, 1-(7-(3,4-Dimethoxyphenylamino)thiazolo[5,4-d]pyrimidin-5-yl)-N-(5-oxopyrrolidin-3-yl)piperidine-3-carboxamide], 4210 nM; that for `COc1ccc(Nc2nc(N3CCC(NC(=O)c4ccc(C(=O)O)nc4)C3)nc3scnc23)cc1OC` (stereo not shown) [Compound I-39, 5-(1-(7-(3,4-Dimethoxyphenylamino)thiazolo[5,4-d]pyrimidin-5-yl)pyrrolidin-3-ylcarbamoyl)picolinic acid], 129 nM. As to `COc1ccc(Nc2nc(N3CCC(C(=O)NCCc4ccncc4)CC3)nc3scnc23)cc1OC` [Compound I-21, 1-(7-(3,4-Dimethoxyphenylamino)thiazolo[5,4-d]pyrimidin-5-yl)-N-(2-(pyridin-4-yl)ethyl)piperidine-4-carboxamide], the 50% inhibitory concentration (IC50) came to 1850 nM. The result for `O=C(O)c1cccc(-c2nc(Nc3cccc(N4CC5(COC5)C4)c3)c3ncsc3n2)c1` [Compound I-53, 3-{7-[3-(2-Oxa-6-aza-spiro[3.3]hept-6-yl)-phenylamino]-thiazolo[5,4-d]pyrimidin-5-yl}-benzoic acid] reads 3870 nM; that for `COc1ccc(Nc2nc(N3CCCC(C(=O)Nc4ccc(C(=O)O)c(O)c4)C3)nc3scnc23)cc1OC` (stereo not shown) [Compound I-47, 4-(1-(7-(3,4-Dimethoxyphenylamino)thiazolo[5,4-d]pyrimidin-5-yl)piperidine-3-carboxamido)-2-hydroxybenzoic acid], 71 nM; that for `C[C@H]1CCCN1c1cccc(Nc2nc(-c3ccc(C(=O)NCCN(C)C)cc3)nc3scnc23)c1` [Compound I-65, (S)-N-(2-(Dimethylamino)ethyl)-4-(7-(3-(2-methylpyrrolidin-1-yl)phenylamino)thiazolo[5,4-d]pyrimidin-5-yl)benzamide], 351 nM. The result for `O=C(O)c1cccc(-c2nc(Nc3cccc(C(F)(F)F)c3)c3ncsc3n2)c1` [Compound I-57, 3-[7-(3-Trifluoromethyl-phenylamino)-thiazolo[5,4-d]pyrimidin-5-yl]-benzoic acid] reads 4250 nM; that for `COc1ccc(Nc2nc(N3CCC(NC(=O)c4cnccn4)C3)nc3scnc23)cc1OC` (stereo not shown) [Compound I-12, N-(1-(7-(3,4-Dimethoxyphenylamino)thiazolo[5,4-d]pyrimidin-5-yl)pyrrolidin-3-yl)pyrazine-2-carboxamide], 933 nM. The result for `COc1ccc(Nc2nc(-c3cccc(C(=O)O)c3)nc3scnc23)cc1OC` [Compound I-1, 3-[7-(3,4-Dimethoxy-phenylamino)-thiazolo[5,4-d]pyrimidin-5-yl]-benzoic acid] reads 421 nM; that for `COc1ccc(Nc2nc(N3CCC(NC(=O)c4ccc5[nH]c(=O)[nH]c5c4)C3)nc3scnc23)cc1OC` (stereo not shown) [Compound I-14, N-(1-(7-(3,4-Dimethoxyphenylamino)thiazolo[5,4-d]pyrimidin-5-yl)pyrrolidin-3-yl)-2-oxo-2,3-dihydro-1H-benzo[d]imidazole-5-carboxamide], 487 nM; that for `COc1ccc(Nc2nc(N3CCCC(C(=O)Nc4ccc(-c5nnc(S)o5)cc4)C3)nc3scnc23)cc1OC` (stereo not shown) [Compound I-51, 1-(7-(3,4-Dimethoxyphenylamino)thiazolo[5,4-d]pyrimidin-5-yl)-N-(4-(5-mercapto-1,3,4-oxadiazol-2-yl)phenyl)piperidine-3-carboxamide], 156 nM.
